Results published in patent US11597702B2, “Substituted pyrazoles FFA4/GPR120 receptor agonists” (AXXAM S.P.A., priority 2018, dated 2023).

Target: T1, GPR120 (Homo sapiens, UniProt Q5NUL3)
T1 construct: expressed in transfected cells; host or cells: CHO mitoPhotinaGPR120 cells
T1 sequence (Q5NUL3 1-361): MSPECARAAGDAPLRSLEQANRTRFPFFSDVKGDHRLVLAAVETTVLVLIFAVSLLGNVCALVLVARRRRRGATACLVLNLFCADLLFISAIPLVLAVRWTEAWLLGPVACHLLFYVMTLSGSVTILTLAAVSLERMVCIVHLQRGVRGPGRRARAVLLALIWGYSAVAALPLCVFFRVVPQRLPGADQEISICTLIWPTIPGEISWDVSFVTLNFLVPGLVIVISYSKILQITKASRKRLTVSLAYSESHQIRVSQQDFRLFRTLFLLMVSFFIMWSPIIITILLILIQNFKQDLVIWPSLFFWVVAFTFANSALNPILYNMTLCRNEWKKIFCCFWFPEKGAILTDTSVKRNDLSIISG
Assay: GPR120 agonism in CHO mitoPhotinaGPR120 cell based assay with fluorescent (Fluo-8 calcium, FLIPRTetra) readout, Agonist Mode, dose response
Conditions: CHO mitoPhotinaGPR120 cells, Fluo-8 No Wash Ca2+ dye, dose response in quadruplicate, 0.0033% fatty acid free BSA
Procedure: Compounds of the invention were tested for GPR120 agonism in a CHO mitoPhotinaGPR120 cell based assay with fluorescent readout in Agonist Mode in dose response in quadruplicate with intra-plate modality.
Twenty (20) h after seeding, growth medium was manually removed and cells were starved in the presence of 25 μL/w of Standard Tyrode's Buffer. After 3 h, cells were loaded with 20 μL/w of 0.5× Fluo-8 No Wash (AAT Bioquest, Inc.) Ca2+ sensitive dye prepared in Standard Tyrode's Buffer. Cells were incubated for 1 h at room temperature in the dark. Ten (10) μL/w 3× of controls and compounds were diluted in Standard Tyrode's Buffer+0.01% fatty acid free BSA (final concentration=0.0033%) and injected at the FLIPRTetra®, recording the kinetic calcium traces for 3 minutes. Standard Tyrode's buffer composition: 5 mM KCl, 130 mM NaCl, 2 mM CaCl2), 5 mM NaHCO3, 1 mM MgCl2, 20 mM HEPES, pH7.4.

Row | Structure (SMILES) | EC50
1 | Cc1nn(-c2cccc(Cl)c2)c(COc2ccc(CCO)cc2)c1C#N [Example 75, 1-(3-chlorophenyl)-5-[[4-(2-hydroxyethyl)phenoxy]methyl]-3-methyl-pyrazole-4-carbonitrile] | 4.61 µM
2 | Cc1nn(-c2ccc(Cl)cc2)c(COc2ccc(CCO)cc2)c1C#N [Example 76, 1-(4-chlorophenyl)-5-[[4-(2-hydroxyethyl)phenoxy]methyl]-3-methyl-pyrazole-4-carbonitrile] | 0.76 µM
3 | Cc1nn(-c2cccc(C(F)(F)F)c2)c(COc2ccc(CCO)cc2)c1C#N [Example 77, 5-[[4-(2-hydroxyethyl)phenoxy]methyl]-3-methyl-1-[3-(trifluoromethyl)phenyl]pyrazole-4-carbonitrile] | 9.03 µM
4 | CCc1ccc(-n2nc(C)c(C#N)c2COc2ccc(CCO)cc2)cc1 [Example 78, 1-(4-ethylphenyl)-5-[[4-(2-hydroxyethyl)phenoxy]methyl]-3-methyl-pyrazole-4-carbonitrile] | 0.38 µM
5 | COc1cccc(-n2nc(C)c(C#N)c2COc2ccc(CCO)cc2)c1 [Example 79, 5-[[4-(2-hydroxyethyl)phenoxy]methyl]-1-(3-methoxyphenyl)-3-methyl-pyrazole-4-carbonitrile] | 1.64 µM
6 | COc1ccc(-n2nc(C)c(C#N)c2COc2ccc(CCO)cc2)cc1 [Example 80, 5-[[4-(2-hydroxyethyl)phenoxy]methyl]-1-(4-methoxyphenyl)-3-methyl-pyrazole-4-carbonitrile] | 0.64 µM
7 | Cc1nn(-c2ccccc2F)c(COc2ccc(CCO)cc2)c1C#N [Example 82, 1-(2-fluorophenyl)-5-[[4-(2-hydroxyethyl)phenoxy]methyl]-3-methyl-pyrazole-4-carbonitrile] | 3.41 µM
8 | Cc1nn(-c2ccc(F)cc2)c(COc2ccccc2)c1C#N [Example 83, 1-(4-fluorophenyl)-3-methyl-5-(phenoxymethyl)pyrazole-4-carbonitrile] | 2.22 µM
9 | Cc1nn(-c2ccc(F)cc2)c(COc2ccc(CCO)cc2)c1C#N [Example 84, 1-(4-fluorophenyl)-5-[[4-(2-hydroxyethyl)phenoxy]methyl]-3-methyl-pyrazole-4-carbonitrile] | 1.54 µM
10 | Cc1nn(-c2ccc(F)cc2)c(COc2cccc(F)c2)c1C#N [Example 85, 5-[(3-fluorophenoxy)methyl]-1-(4-fluorophenyl)-3-methyl-pyrazole-4-carbonitrile] | 4.55 µM
11 | Cc1ccccc1OCc1c(C#N)c(C)nn1-c1ccc(F)cc1 [Example 86, 1-(4-fluorophenyl)-3-methyl-5-[(2-methylphenoxy)methyl]pyrazole-4-carbonitrile] | 1.58 µM
12 | Cc1nn(-c2ccc(F)cc2)c(COc2ccc(CCCO)cc2)c1C#N [Example 87, 1-(4-fluorophenyl)-5-[[4-(3-hydroxypropyl)phenoxy]methyl]-3-methyl-pyrazole-4-carbonitrile] | 0.18 µM
13 | Cc1nn(Cc2ccccc2)c(COc2ccc(CCO)cc2)c1C#N [Example 88, 1-benzyl-5-[[4-(2-hydroxyethyl)phenoxy]methyl]-3-methyl-pyrazole-4-carbonitrile] | 11.2 µM
14 | Cc1nn(Cc2ccccc2)c(COc2ccc(CCCO)cc2)c1C#N [Example 89, 1-benzyl-5-[[4-(3-hydroxypropyl)phenoxy]methyl]-3-methyl-pyrazole-4-carbonitrile] | 0.99 µM
15 | Cc1nn(Cc2ccccc2)c(COc2c(F)cc(CCCO)cc2F)c1C#N [Example 90, 1-benzyl-5-[[2,6-difluoro-4-(3-hydroxypropyl)phenoxy]methyl]-3-methyl-pyrazole-4-carbonitrile] | 0.31 µM
16 | COc1ccc(Cn2nc(C)c(C#N)c2COc2ccc(CCO)cc2)cc1 [Example 91, 5-[[4-(2-hydroxyethyl)phenoxy]methyl]-1-[(4-methoxyphenyl)methyl]-3-methyl-pyrazole-4-carbonitrile] | 16.5 µM
17 | Cc1nn(-c2ccccc2)c(C(C)Oc2ccc(CCO)cc2)c1C#N (stereo not drawn) [Example 92, 5-[1-[4-(2-hydroxyethyl)phenoxy]ethyl]-3-methyl-1-phenyl-pyrazole-4-carbonitrile] | 3.66 µM
18 | Cc1nn(-c2ccccc2)c(C(C)Oc2c(F)cc(CCCO)cc2F)c1C#N (stereo not drawn) [Example 93, 5-[1-[2,6-difluoro-4-(3-hydroxypropyl)phenoxy]ethyl]-3-methyl-1-phenyl-pyrazole-4-carbonitrile] | 0.33 µM
19 | Cc1nn(-c2ccccc2)c(C(F)(F)Oc2ccc(CCO)cc2)c1C#N [Example 94, 5-[difluoro-[4-(2-hydroxyethyl)phenoxy]methyl]-3-methyl-1-phenyl-pyrazole-4-carbonitrile] | 1.35 µM
20 | Cc1nn(-c2ccccc2)c(C(F)(F)Oc2ccc(CCCO)cc2)c1C#N [Example 95, 5-[difluoro-[4-(3-hydroxypropyl)phenoxy]methyl]-3-methyl-1-phenyl-pyrazole-4-carbonitrile] | 0.83 µM
21 | Cc1nn(-c2ccccc2)c(C(F)(F)Oc2c(F)cc(CCCO)cc2F)c1C#N [Example 96, 5-[[2,6-difluoro-4-(3-hydroxypropyl)phenoxy]-difluoro-methyl]-3-methyl-1-phenyl-pyrazole-4-carbonitrile] | 0.52 µM
22 | Cc1nn(-c2ccccc2)c(COCc2ccc(C#N)cc2)c1C#N [Example 97, 5-[(4-cyanophenyl)methoxymethyl]-3-methyl-1-phenyl-pyrazole-4-carbonitrile] | 2.8 µM
23 | Cc1nn(-c2ccc(F)cc2)c(COCc2ccccc2)c1C#N [Example 98, 5-(benzyloxymethyl)-1-(4-fluorophenyl)-3-methyl-pyrazole-4-carbonitrile] | 9.9 µM
24 | Cc1nn(-c2cccc(F)c2)c(COc2ccc(CCO)cc2)c1C#N [Example 101, 1-(3-fluorophenyl)-5-[[4-(2-hydroxyethyl)phenoxy]methyl]-3-methyl-pyrazole-4-carbonitrile] | 1.48 µM
25 | Cc1nn(-c2ccccn2)c(COc2ccc(CCO)cc2)c1C#N [Example 102, 5-[[4-(2-hydroxyethyl)phenoxy]methyl]-3-methyl-1-(2-pyridyl)pyrazole-4-carbonitrile] | 0.53 µM
26 | Cc1nn(-c2cccnc2)c(COc2ccc(CCO)cc2)c1C#N [Example 103, 5-[[4-(2-hydroxyethyl)phenoxy]methyl]-3-methyl-1-(3-pyridyl)pyrazole-4-carbonitrile] | 9.22 µM
27 | Cc1nn(-c2ccncc2)c(COc2ccc(CCO)cc2)c1C#N [Example 104, 5-[[4-(2-hydroxyethyl)phenoxy]methyl]-3-methyl-1-(4-pyridyl)pyrazole-4-carbonitrile] | 10.4 µM
28 | Cc1nn(-c2ncccn2)c(COc2ccc(CCO)cc2)c1C#N [Example 105, 5-[[4-(2-hydroxyethyl)phenoxy]methyl]-3-methyl-1-pyrimidin-2-yl-pyrazole-4-carbonitrile] | 12.6 µM
29 | Cc1nn(-c2cccnn2)c(COc2ccc(CCO)cc2)c1C#N [Example 106, 5-[[4-(2-hydroxyethyl)phenoxy]methyl]-3-methyl-1-pyridazin-3-yl-pyrazole-4-carbonitrile] | 2.49 µM
30 | Cc1nn(-c2ccc(C#N)cc2)c(COc2ccc(CCO)cc2)c1C#N [Example 107, 1-(4-cyanophenyl)-5-[[4-(2-hydroxyethyl)phenoxy]methyl]-3-methyl-pyrazole-4-carbonitrile] | 8.15 µM
